Among the data in PubChem BioAssay AID1259411 (Chemical Carcinogenesis Research Information System (CCRIS), 2018) are carcinogen call values, retold here.

For the data set, the system named is rodent carcinogenicity bioassays, tumor incidence. The data set can be described thus: CCRIS carcinogenicity studies. To be noted: Dose: 0, Dose: 0. The procedure, abridged:
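Archive of carcinogenicity, mutagenicity, tumor promotion and tumor inhibition results drawn from journals, NCI reports and other sources, expert-reviewed; covers 1985-2011 and is no longer updated.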

Active and inactive are the calls of the source. How the calls were made is not given here.

In the case of `O=S(=O)([O-])[O-].[Ni+2]`, the carcinogen call was “inactive; negative” (Species: MOUSE, Strain/Sex: B6C3F1/FEMALE, Route: INHALATION, 0.25, 0.5, 1 MG/M3 6 HR/D 5 D/WK FOR 104 WK (STUDY DURATION: 105 WK), 0.25, 0.5, 1 MG/M3 6 HR/D 5 D/WK FOR 104 WK (STUDY DURATION: 105 WK)); “inactive; negative” (Species: MOUSE, Strain/Sex: B6C3F1/MALE, Route: INHALATION, 0.25, 0.5, 1 MG/M3 6 HR/D 5 D/WK FOR 104 WK (STUDY DURATION: 105 WK), 0.25, 0.5, 1 MG/M3 6 HR/D 5 D/WK FOR 104 WK (STUDY DURATION: 105 WK)); “inactive; negative” (Species: RAT, Strain/Sex: F344/FEMALE, Route: INHALATION, 0.12, 0.25, 0.5 MG/M3 6 HR/D 5 D/WK FOR 104 WK (STUDY DURATION: 105 WK), 0.12, 0.25, 0.5 MG/M3 6 HR/D 5 D/WK FOR 104 WK (STUDY DURATION: 105 WK)); “inactive; negative” (Species: RAT, Strain/Sex: F344/MALE, Route: INHALATION, 0.12, 0.25, 0.5 MG/M3 6 HR/D 5 D/WK FOR 104 WK (STUDY DURATION: 105 WK), 0.12, 0.25, 0.5 MG/M3 6 HR/D 5 D/WK FOR 104 WK (STUDY DURATION: 105 WK)); “inactive; negative” (Species: RAT, Strain/Sex: F344/MALE, Route: INTRAMUSCULAR, 63, 83, UMOL/KG GIVEN IN 14 INJECTIONS OVER 26 D (STUDY DURATION; 2 YR), 63, 83, UMOL/KG GIVEN IN 14 INJECTIONS OVER 26 D (STUDY DURATION; 2 YR)); “inactive; negative” (Species: Rat, Strain/Sex: Fischer 344/Female (50/group), Route: Oral, 10, 30, 50 mg/kg/day by gavage once daily for 104 wk, 10, 30, 50 mg/kg/day by gavage once daily for 104 wk). The carcinogen call (Species: Rat, Strain/Sex: Fischer 344/Male (50/group), Route: Oral, 10, 30, 50 mg/kg/day by gavage once daily for 104 wk, 10, 30, 50 mg/kg/day by gavage once daily for 104 wk) is “inactive; negative”.
With `CCC(C)OC(OC(C)CC)C(=O)c1ccccc1` (centres undefined), for the setting “Species: MOUSE, Strain/Sex: C3H/HEJ/MALE, Route: DERMAL, 22.4 MG UNDILUTED 3/WK FOR LIFESPAN (STUDY DURATION: LIFESPAN)”, the carcinogen call was “inactive; negative”.
As for `O=C(O)C(Cl)Cl`, the carcinogen call by setting is: (Species: MOUSE, Strain/Sex: B6C3F1/FEMALE, Route: ORAL, 2, 6.67, 20 MMOL/L IN DRINKING WATER FOR 360 D (STUDY DURATION: 360 D), 2, 6.67, 20 MMOL/L IN DRINKING WATER FOR 360 D (STUDY DURATION: 360 D), Tumor Site: Type of Lesion: LIVER: ADENOMA) “active; positive”; (Species: MOUSE, Strain/Sex: B6C3F1/FEMALE, Route: ORAL, 2, 6.67, 20 MMOL/L IN DRINKING WATER FOR 576 D (STUDY DURATION: 576 D), 2, 6.67, 20 MMOL/L IN DRINKING WATER FOR 576 D (STUDY DURATION: 576 D), Tumor Site: Type of Lesion: LIVER: ADENOMA, CARCINOMA) “active; positive”; (Species: MOUSE, Strain/Sex: B6C3F1/FEMALE, Route: ORAL, 2 G/L (TOTAL DOSE) IN DRINKING WATER FOR 52 WK (STUDY DURATION: 52 WK)) “inactive; negative”; (Species: MOUSE, Strain/Sex: B6C3F1/FEMALE, Route: ORAL, 20 MMOL/L IN DRINKING WATER FOR 24 D FOLLOWED BY 48 D WITHOUT EXPOSURE THIS 72-DAY CYCLE REPEATED FOR THE DURATION OF) “inactive; negative”; (Species: MOUSE, Strain/Sex: B6C3F1/MALE, Route: ORAL, 0.5, 1.0, 2, 3.5 G/L IN DRINKING WATER FOR 26 WK (STUDY DURATION: 26 WK), 0.5, 1.0, 2, 3.5 G/L IN DRINKING WATER FOR 26 WK (STUDY DURATION: 26 WK)) “inactive; negative”; (Species: MOUSE, Strain/Sex: B6C3F1/MALE, Route: ORAL, 0.5, 1.0, 2, 3.5 G/L IN DRINKING WATER FOR 52 WK (STUDY DURATION: 52 WK), 0.5, 1.0, 2, 3.5 G/L IN DRINKING WATER FOR 52 WK (STUDY DURATION: 52 WK), Tumor Site: Type of Lesion: LIVER: HEPATOCELLULAR ADENOMA OR CARCINOMA) “active; positive”. For the same molecule, the carcinogen call is “active; positive” (Species: MOUSE, Strain/Sex: B6C3F1/MALE, Route: ORAL, 0.5, 1.0, 2, 3.5 G/L IN DRINKING WATER FOR 78 WK (STUDY DURATION: 78 WK), 0.5, 1.0, 2, 3.5 G/L IN DRINKING WATER FOR 78 WK (STUDY DURATION: 78 WK), Tumor Site: Type of Lesion: LIVER: HEPATOCELLULAR ADENOMA OR CARCINOMA); “active; positive” (Species: MOUSE, Strain/Sex: B6C3F1/MALE, Route: ORAL, 0.5, 1.0, 2, 3.5 G/L IN DRINKING WATER FOR 100 WK (STUDY DURATION: 100 WK), 0.5, 1.0, 2, 3.5 G/L IN DRINKING WATER FOR 100 WK (STUDY DURATION: 100 WK), Tumor Site: Type of Lesion: LIVER: HEPATOCELLULAR ADENOMA OR CARCINOMA); “active; positive” (Species: MOUSE, Strain/Sex: B6C3F1/MALE, Route: ORAL, 0.5 G/L DISTILLED DRINKING WATER FOR STUDY DURATION (93 MG/KG/D) (STUDY DURATION: 104 WK), Tumor Site: Type of Lesion: LIVER: HEPATOCELLULAR CARCINOMA, HEPATOCELLULAR ADENOMA); “active; positive” (Species: MOUSE, Strain/Sex: B6C3F1/MALE, Route: ORAL, 1, 2 G/L IN DRINKING WATER FOR 52 WK (STUDY DURATION: 52 WK), 1, 2 G/L IN DRINKING WATER FOR 52 WK (STUDY DURATION: 52 WK), Tumor Site: Type of Lesion: LIVER: ADENOMA OR HEPATOCELLULAR CARCINOMA); “active; positive” (Species: MOUSE, Strain/Sex: B6C3F1/MALE, Route: ORAL, 1 G, 2 G/L (TOTAL DOSE) IN DRINKING WATER FOR 52 WK (STUDY DURATION: 52 WK), 1 G, 2 G/L (TOTAL DOSE) IN DRINKING WATER FOR 52 WK (STUDY DURATION: 52 WK), Tumor Site: Type of Lesion: LIVER: HEPATOCELLULAR CARCINOMA, ADENOMA, HYPERPLASTIC NODULES); “active; positive” (Species: MOUSE, Strain/Sex: B6C3F1/MALE, Route: ORAL, 2 G/L (TOTAL DOSE) IN DRINKING WATER FOR 37 WK (STUDY DURATION: 52 WK), Tumor Site: Type of Lesion: LIVER: ADENOMA, HYPERPLASTIC NODULES). The carcinogen call is, setting by setting: (Species: MOUSE, Strain/Sex: B6C3F1/MALE, Route: ORAL, 5 G/L (0; 39 MILLIMOLAR) IN DRINKING WATER FOR 61 WK (STUDY DURATION: 61 WK), 5 G/L (0; 39 MILLIMOLAR) IN DRINKING WATER FOR 61 WK (STUDY DURATION: 61 WK), Tumor Site: Type of Lesion: LIVER: CARCINOMA) “active; positive”; (Species: RAT, Strain/Sex: F344/MALE, Route: ORAL, 0.05, 0.5 G/L IN DRINKING WATER FOR 100 WK (STUDY DURATION: 100 WK), 0.05, 0.5 G/L IN DRINKING WATER FOR 100 WK (STUDY DURATION: 100 WK), Tumor Site: Type of Lesion: LIVER: HEPATOCELLULAR ADENOMA OR CARCINOMA) “active; positive”; (Species: RAT, Strain/Sex: F344/MALE, Route: ORAL, 2.5 G/L IN DRINKING WATER DOSE LOWERED TO 1 G/L AFTER 18 WK (STUDY DURATION: 103 WK), Tumor Site: Type of Lesion: LIVER: HEPATOCELLULAR ADENOMA OR CARCINOMA) “active; positive”.
Turning to `CNC(=O)Oc1ccc2c(c1)[C@]1(C)CCN(C)[C@@H]1N2C`, the carcinogen call (Species: RAT, Strain/Sex: SPRAGUE-DAWLEY/FEMALE (70/GROUP), Route: SUBCUTANEOUS (INGUINAL REGION), 3.3 UG/KG BW, 2/D FOR 5 D (STUDY DURATION: 28 MO), 3.3 UG/KG BW, 2/D FOR 5 D (STUDY DURATION: 28 MO), Tumor Site: Type of Lesion: MAMMARY GLAND: TUMOR) is “active; positive”.
